# Source: patent US11471481B2, “Rapid-deposition thin-film forming compositions as effective wound care treatment” (priority 2016, dated 2022)
# Where two headings read alike, the source gives them in different places.
# Assays:
# [1] = Solubility of PVP-I in different organic solvents; format: physicochemical
# Method: PVP-I is a polymer complex soluble in water.
# To make PVP-I liquid bandage solutions to form rapid-deposition film on skin surface, low boiling-point volatile solvents were selected to study solubility of PVP-I and the time required for the solvent to evaporate to dryness. […] When ethanol alone was the solvent, the drying time was 3 minutes 27 seconds. A mixed solvent has even shorter drying time. Particularly, when the mixed solvent contains acetone and isopentane (which have low boiling points), drying time had been shortened to less than 2 minutes, as the mixed solvents could form azeotropes, which was easier to evaporate. Isopentane had some irritation to skin, and thus its dosage could not be too high. From the study, dosage greater than 15% of isopentane could not shorten the drying time, but instead increase the skin irritation. n-Pentane is not used because of its pungent smell. Therefore, after a preliminary study, ethanol, ethyl acetate, acetone and isopentane alone or combinations were chosen as the solvent phase in this invention.
# human skin fibroblast = settings: cited from earlier work
substance,measurement,setting,value
Povidone iodine [PVP-I],Solubility of PVP-I in ethanol,[1]; ethanol,readily soluble
same,"Solubility of PVP-I in ethyl acetate, acetone, isopentane and n-pentane","[1]; ethyl acetate, acetone, isopentane, n-pentane",insoluble
same,Fibroblast growth,human skin fibroblast; 0.01% and 0.025% PVP-I solutions,progressively retarded
same,Fibroblast growth,human skin fibroblast; 0.1% and 1% PVP-I solutions,totally inhibited
